{"source": "ChEMBL document CHEMBL5108002", "about": "“Design, synthesis, and biological evaluation of novel 7-substituted 10,11-methylenedioxy-camptothecin derivatives against drug-resistant small-cell lung cancer in vitro and in vivo” (Eur J Med Chem, 2022)", "key": {"NCI-H446 [1]": {"tested_on": "NCI-H446", "assay": "Induction of apoptosis in human NCI-H446 cells assessed as reduction in survivin mRNA level at 0.1 to 100 nM incubated for 24 hrs by RT-PCR analysis", "type": "functional, cell-based", "details": "dose 0.1-100 nM"}, "NCI-H446 [2]": {"tested_on": "NCI-H446", "assay": "Induction of apoptosis in human NCI-H446 cells assessed as inhibition of Bcl-1 protein expression at 0.1 to 100 nM incubated for 24 hrs by Western blot analysis", "type": "functional, cell-based", "details": "dose 0.1-100 nM"}, "NCI-H69 [3]": {"tested_on": "NCI-H69", "assay": "Induction of apoptosis in human NCI-H69 cells assessed as reduction in survivin mRNA expression at 0.1 to 100 nM incubated for 24 hrs by RT-PCR analysis", "type": "functional, cell-based", "details": "dose 0.1-100 nM"}, "H69AR [4]": {"tested_on": "H69AR", "assay": "Induction of apoptosis in human NCI-H69AR cells assessed as reduction in Mcl-1 mRNA expression at 0.1 to 100 nM incubated for 24 hrs by RT-PCR analysis", "type": "functional, cell-based", "details": "dose 0.1-100 nM"}, "H69AR [5]": {"tested_on": "H69AR", "assay": "Induction of apoptosis in human NCI-H69AR cells assessed as early apoptotic cells at 100 nM incubated for 24 hrs by AnnexinV-FITC/PI staining based flow cytometry analysis (reference value: 0.35 %)", "type": "functional"}, "2008": {"tested_on": "2008", "assay": "Antiproliferative activity against human 2008 cells assessed as inhibition of cell growth incubated for 72 hrs by SRB assay", "type": "functional, cell-based", "details": "Homo sapiens, 2008, 72 h"}, "NCI-H446 [6]": {"tested_on": "NCI-H446", "assay": "Induction of apoptosis in human NCI-H446 cells assessed as dead cells at 0.1 nM incubated for 24 hrs by AnnexinV-FITC/PI staining based flow cytometry analysis (reference value: 0.22 %)", "type": "functional"}, "NCI-H446 [7]": {"tested_on": "NCI-H446", "assay": "Antitumor activity against human NCI-H446 cells xenografted in BALB/c nude mouse assessed as reduction in large tumor growth at 3 mg/kg, IG administered for 31 days by electronic caliper method", "type": "functional, organism-based", "details": "time 31.0 day"}, "NCI-H446 [8]": {"tested_on": "NCI-H446", "assay": "Antitumor activity against human NCI-H446 cells xenografted in BALB/c nude mouse assessed as tumor growth inhibition at 3 mg/kg, IG administered once a week for 28 days by electronic caliper method relative to control", "type": "functional", "details": "NCI-H446, po, 672 h, time 28 day, read-out: TGI"}, "NCI-H446 [9]": {"tested_on": "NCI-H446", "assay": "Induction of apoptosis in human NCI-H446 cells assessed as early apoptotic cells at 0.1 nM incubated for 24 hrs by AnnexinV-FITC/PI staining based flow cytometry analysis (reference value: 3.1 %)", "type": "functional"}, "NCI-H446 [10]": {"tested_on": "NCI-H446", "assay": "Induction of apoptosis in human NCI-H446 cells assessed as dead cells at 10 nM incubated for 24 hrs by AnnexinV-FITC/PI staining based flow cytometry analysis (reference value: 0.22 %)", "type": "functional"}, "NCI-H446 [11]": {"tested_on": "NCI-H446", "assay": "Antitumor activity against etoposide/cisplatin combination-resistant human NCI-H446 cells xenografted in BALB/c nude mouse assessed as average tumor mass at 3 mg/kg, IG administered once a week and measured 3 times a week", "type": "functional"}, "H69AR [12]": {"tested_on": "H69AR", "assay": "Induction of apoptosis in human NCI-H69AR cells assessed as reduction in survivin mRNA expression at 0.1 to 100 nM incubated for 24 hrs by RT-PCR analysis", "type": "functional, cell-based", "details": "dose 0.1-100 nM"}, "H69AR [13]": {"tested_on": "H69AR", "assay": "Induction of apoptosis in human NCI-H69AR cells assessed as late apoptotic cells at 10 nM incubated for 24 hrs by AnnexinV-FITC/PI staining based flow cytometry analysis (reference value: 2.99 %)", "type": "functional"}, "H69AR [14]": {"tested_on": "H69AR", "assay": "Induction of apoptosis in human NCI-H69AR cells assessed as late apoptotic cells at 1 nM incubated for 24 hrs by AnnexinV-FITC/PI staining based flow cytometry analysis (reference value: 2.99 %)", "type": "functional"}, "H69AR [15]": {"tested_on": "H69AR", "assay": "Induction of apoptosis in human NCI-H69AR cells assessed as increase in cleaved-PARP protein expression at 0.1 to 100 nM measured after 24 hrs by Western blot analysis", "type": "functional, cell-based", "details": "dose 0.1-100 nM"}, "H69AR [16]": {"tested_on": "H69AR", "assay": "Induction of apoptosis in human NCI-H69AR cells assessed as increase in cleaved-caspase 3 protein expression at 0.1 to 100 nM measured after 24 hrs by Western blot analysis", "type": "functional, cell-based", "details": "dose 0.1-100 nM"}, "NCI-H69 [17]": {"tested_on": "NCI-H69", "assay": "Induction of apoptosis in human NCI-H69 cells assessed as reduction in Bcl-2 mRNA expression at 0.1 to 100 nM incubated for 24 hrs by RT-PCR analysis", "type": "functional, cell-based", "details": "dose 0.1-100 nM"}, "H69AR [18]": {"tested_on": "H69AR", "assay": "Induction of apoptosis in human NCI-H69AR cells assessed as inhibition of survivin protein expression at 0.1 to 100 nM incubated for 24 hrs by Western blot analysis", "type": "functional, cell-based", "details": "dose 0.1-100 nM"}, "[19]": {"assay": "Toxicity in BALB/c nude mouse xenografted with Irinotecan-resistant human NCI-H446 cells assessed as reduction in body weight at 3 mg/kg, IG administered once a week and measured 3 times a week for 35 days", "type": "organism-based", "details": "in vivo, po, 840 h, time 35 day"}, "NCI-H69 [20]": {"tested_on": "NCI-H69", "assay": "Antiproliferative activity against human NCI-H69 cells assessed as inhibition of cell growth incubated for 72 hrs by SRB assay", "type": "functional, cell-based", "details": "NCI-H69, 72 h"}, "[21]": {"assay": "Resistance index, ratio of IC50 for antiproliferative activity against Irinotecan-resistant human NCI-H446 cells to IC50 for antiproliferative activity against human NCI-H446 cells", "type": "functional"}, "NCI-H69 [22]": {"tested_on": "NCI-H69", "assay": "Induction of apoptosis in human NCI-H69 cells assessed as inhibition of Mcl-1 protein expression at 0.1 to 100 nM incubated for 24 hrs by Western blot analysis", "type": "functional, cell-based", "details": "dose 0.1-100 nM"}, "NCI-H69 [23]": {"tested_on": "NCI-H69", "assay": "Induction of apoptosis in human NCI-H69 cells assessed as increase in cleaved-caspase 3 protein expression at 0.1 to 100 nM measured after 24 hrs by Western blot analysis", "type": "functional, cell-based", "details": "dose 0.1-100 nM"}, "H69AR [24]": {"tested_on": "H69AR", "assay": "Induction of apoptosis in human NCI-H69AR cells assessed as inhibition of XIAP protein expression at 0.1 to 100 nM incubated for 24 hrs by Western blot analysis", "type": "functional, cell-based", "details": "dose 0.1-100 nM"}, "H69AR [25]": {"tested_on": "H69AR", "assay": "Induction of apoptosis in human NCI-H69AR cells assessed as reduction in XIAP mRNA expression at 0.1 to 100 nM incubated for 24 hrs by RT-PCR analysis", "type": "functional, cell-based", "details": "dose 0.1-100 nM"}, "Mus musculus": {"tested_on": "Mus musculus", "assay": "Downregulation of survivin protein expression in tumor of BALB/c mouse xenografted with human NCI-H446 cells at 0.75 mg/kg, IG administered intragastrically once a week for 28 days by western blot analysis", "type": "functional, organism-based", "details": "time 28.0 day"}, "NCI-H446 [26]": {"tested_on": "NCI-H446", "assay": "Induction of apoptosis in human NCI-H446 cells assessed as increase in cleaved-caspase 3 protein expression at 0.1 to 100 nM measured after 24 to 48 hrs by Western blot analysis", "type": "functional, cell-based", "details": "dose 0.1-100 nM, time 24-48 hrs"}, "NCI-H446 [27]": {"tested_on": "NCI-H446", "assay": "Antitumor activity against Irinotecan-resistant human NCI-H446 cells xenografted in BALB/c nude mouse assessed as tumor weight at 3 mg/kg, IG administered once a week and measured 3 times a week for 35 days relative to control", "type": "functional", "details": "NCI-H446, po, 840 h, time 35 day, read-out: TGI"}, "NCI-H69 [28]": {"tested_on": "NCI-H69", "assay": "Induction of apoptosis in human NCI-H69 cells assessed as reduction in Mcl-1 mRNA expression at 0.1 to 100 nM incubated for 24 hrs by RT-PCR analysis", "type": "functional, cell-based", "details": "dose 0.1-100 nM"}, "NCI-H446 [29]": {"tested_on": "NCI-H446", "assay": "Induction of apoptosis in human NCI-H446 cells assessed as late apoptotic cells at 0.1 nM incubated for 24 hrs by AnnexinV-FITC/PI staining based flow cytometry analysis (reference value: 0.37 %)", "type": "functional"}, "NCI-H446 [30]": {"tested_on": "NCI-H446", "assay": "Induction of apoptosis in human NCI-H446 cells assessed as reduction in Mcl-1 mRNA level at 0.1 to 100 nM incubated for 24 hrs by RT-PCR analysis", "type": "functional, cell-based", "details": "dose 0.1-100 nM"}}, "note": "pIC50: −log10 of the molar value. Active and inactive are the calls of the source. No cut-off for these calls is given here.", "data": [{"smiles": "CC[C@@]1(O)C(=O)OCc2c1cc1n(c2=O)Cc2c-1nc1cc3c(cc1c2-c1ccoc1)OCO3", "values": [{"measurement": "Activity", "setting": "NCI-H446 [1]", "value": "Active"}, {"measurement": "inhibition", "setting": "NCI-H446 [2]", "value": "Active"}, {"measurement": "Activity", "setting": "NCI-H69 [3]", "value": "Active"}, {"measurement": "Activity", "setting": "H69AR [4]", "value": "Active"}, {"measurement": "Activity", "setting": "H69AR [5]", "value": 1.73, "unit": "%"}, {"measurement": "pIC50", "setting": "2008", "value": 7.99}, {"measurement": "Activity", "setting": "NCI-H446 [6]", "value": 0.91, "unit": "%"}, {"measurement": "Activity", "setting": "NCI-H446 [7]", "value": "Active"}, {"measurement": "inhibition in vivo at 3 mg/kg", "setting": "NCI-H446 [8]", "value": 95.5, "unit": "%"}, {"measurement": "Activity", "setting": "NCI-H446 [9]", "value": 7, "unit": "%"}, {"measurement": "Activity", "setting": "NCI-H446 [10]", "value": 2.78, "unit": "%"}, {"measurement": "Activity", "setting": "NCI-H446 [11]", "value": 0.23, "unit": "g"}, {"measurement": "Activity", "setting": "H69AR [12]", "value": "Active"}, {"measurement": "Activity", "setting": "H69AR [13]", "value": 12.48, "unit": "%"}, {"measurement": "Activity", "setting": "H69AR [14]", "value": 7.02, "unit": "%"}, {"measurement": "Activity", "setting": "H69AR [15]", "value": "Active"}, {"measurement": "Activity", "setting": "H69AR [16]", "value": "Active"}, {"measurement": "Activity", "setting": "NCI-H69 [17]", "value": "Active"}, {"measurement": "inhibition", "setting": "H69AR [18]", "value": "Active"}, {"measurement": "Activity", "setting": "[19]", "value": "Non-Toxic"}, {"measurement": "pIC50", "setting": "NCI-H69 [20]", "value": 7.84}, {"measurement": "Ratio IC50", "setting": "[21]", "value": 0.64}, {"measurement": "inhibition", "setting": "NCI-H69 [22]", "value": "Active"}, {"measurement": "Activity", "setting": "NCI-H69 [23]", "value": "Active"}, {"measurement": "inhibition", "setting": "H69AR [24]", "value": "Active"}, {"measurement": "Activity", "setting": "H69AR [25]", "value": "Active"}, {"measurement": "Activity", "setting": "Mus musculus", "value": "Active"}, {"measurement": "Activity", "setting": "NCI-H446 [26]", "value": "Active"}, {"measurement": "inhibition in vivo at 3 mg/kg", "setting": "NCI-H446 [27]", "value": 93.4, "unit": "%"}, {"measurement": "Activity", "setting": "NCI-H69 [28]", "value": "Active"}, {"measurement": "Activity", "setting": "NCI-H446 [29]", "value": 3.73, "unit": "%"}, {"measurement": "Activity", "setting": "NCI-H446 [30]", "value": "Active"}]}]}
